{"source": "BindingDB's records for doi:10.1016/j.ejmech.2018.08.085", "about": "(China Pharmaceutical University, 2018)", "data": [{"test": "Binding affinity to VDR in scrambled siRNA-transfected human MCF7 cells assessed as cell growth inhibition by measuring reduction in BrdU incorporation after 16 hrs by ELISA", "units": {"IC50": "nM"}, "values": [{"smiles": "CCn1c(C(=O)N[C@@H](C)CO)ccc1C(CC)(CC)c1ccc(OCC(O)C(C)(C)C)c(C)c1", "note": "(stereo partly drawn)", "IC50": 4300}, {"smiles": "CCN(CC)CCNC(=O)c1ccc(C(CC)(CC)c2ccc(OCSC)c(C)c2)n1CC", "IC50": 970}, {"smiles": "CCN(CC)CCNC(=O)c1cc(C(CC)(CC)c2ccc(OCS(=O)(=O)c3ccccc3)c(C)c2)cn1CC", "IC50": 650}]}]}
